Laboratory results reported in patent publication US7750017B2, “Heterocycles” (Bayer Schering Pharma Aktiengesellschaft, priority 2004, dated 2010).

What was measured:
[1] = test system: BT474 [human breast carcinoma, overexpressing HER2 (ErbB2)]; experiment: In vitro tumor cell proliferation assay (Cell Titer-Glo luminescent cell viability), BT474 cells; type: cell-based; details: BT-474, 72 h, 72 hours of drug exposure, Cell Titer-Glo readout, read-out: IC50, anti-proliferative activity in BT474 cells
[2] = test system: A431 cells [human epidermoid carcinoma, overexpressing HER1 (EGFR, ErbB1)]; experiment: In vitro tumor cell proliferation assay (Cell Titer-Glo luminescent cell viability), A431 cells; type: cell-based; details: A-431, 72 h, 72 hours of drug exposure, Cell Titer-Glo readout, read-out: IC50, anti-proliferative activity in A431 cells

| IC50 [1] | IC50 [2] | SMILES |
| --- | --- | --- |
| ≤ 5 µM | ≤ 50 µM | CCOC(=O)C(C(=O)OCC)c1ccc2c(c1)sc1ncnc(Nc3ccc4c(cnn4Cc4cccc(F)c4)c3)c12 [Example 118, diethyl (4-{[1-(3-fluorobenzyl)-1H-indazol-5-yl]amino}[1]benzothieno [2,3-d]pyrimidin-7-yl)malonate] |
| ≤ 0.5 µM | ≤ 5 µM | Fc1cccc(Cn2ncc3cc(Nc4ncnc5sc6cc(N7CCNCC7)ccc6c45)ccc32)c1 [Example 119, N-[1-(3-fluorobenzyl)-1H-indazol-5-yl]-7-piperazin-1-yl[1]benzothieno [2,3-d]pyrimidin-4-amine] |
| ≤ 0.5 µM | ≤ 50 µM | Fc1cccc(Cn2ncc3cc(Nc4ncnc5sc6cc(N7CCOCC7)ccc6c45)ccc32)c1 [Example 120, N-[1-(3-fluorobenzyl)-1H-indazol-5-yl]-7-morpholin-4-yl[1] benzothieno[2,3-d]pyrimidin-4-amine] |
| ≤ 5 µM | ≤ 50 µM | O=C(O)Cc1ccc2c(c1)sc1ncnc(Nc3ccc4c(cnn4Cc4cccc(F)c4)c3)c12 [Example 121, (4-{[1-(3-fluorobenzyl)-1H-indazol-5-yl]amino}[1]benzothieno[2,3-d]pyrimidin-7-yl)acetic acid] |
| ≤ 0.5 µM | ≤ 5 µM | CS(=O)(=O)CCNC(=O)Cc1ccc2c(c1)sc1ncnc(Nc3ccc4c(cnn4Cc4cccc(F)c4)c3)c12 [Example 122, 2-(4-{[1-(3-fluorobenzyl)-1H-indazol-5-yl]amino}[1]benzothieno[2,3-d]pyrimidin-7-yl)-N-[2-(methylsulfonyl)ethyl] acetamide] |
| ≤ 0.5 µM | ≤ 5 µM | CN(C)CCNC(=O)Cc1ccc2c(c1)sc1ncnc(Nc3ccc4c(cnn4Cc4cccc(F)c4)c3)c12 [Example 126, N-[2-(dimethylamino)ethyl]-2-(4-{[1-(3-fluorobenzyl)-1H-indazol-5-yl]amino}[1]benzothieno[2,3-d]pyrimidin-7-yl)acetamide] |
| ≤ 0.5 µM | ≤ 5 µM | OCCc1ccc2c(c1)sc1ncnc(Nc3ccc4c(cnn4Cc4cccc(F)c4)c3)c12 [Example 127, 2-(4-{[1-(3-fluorobenzyl)-1H-indazol-5-yl]amino}[1]benzothieno [2,3-d]pyrimidin-7-yl)ethanol] |
| ≤ 0.5 µM | ≤ 5 µM | CN1CCN(CCc2ccc3c(c2)sc2ncnc(Nc4ccc5c(cnn5Cc5cccc(F)c5)c4)c23)CC1 [Example 128, N-[1-(3-fluorobenzyl)-1H-indazol-5-yl]-7-[2-(4-methylpiperazin-1-yl)ethyl][1]benzothieno[2,3-d] pyrimidin-4-amine] |
| ≤ 0.5 µM | ≤ 5 µM | Fc1cccc(Cn2ncc3cc(Nc4ncnc5sc6cc(CCN7CCOCC7)ccc6c45)ccc32)c1 [Example 129, N-[1-(3-fluorobenzyl)-1H-indazol-5-yl]-7-(2-morpholin-4-ylethyl) [1]benzothieno[2,3-d]pyrimidin-4-amine] |
| ≤ 0.5 µM | ≤ 50 µM | C=Cc1ccc2c(c1)sc1ncnc(Nc3ccc4c(cnn4Cc4ccccn4)c3)c12 [Example 130, N-[1-(pyridin-2-ylmethyl)-1H-indazol-5-yl]-7-vinyl[1] benzothieno[2,3-d]pyrimidin-4-amine] |
| ≤ 0.5 µM | ≤ 50 µM | OCC(O)c1ccc2c(c1)sc1ncnc(Nc3ccc4c(cnn4Cc4ccccn4)c3)c12 (centres unmarked) [Example 131, 1-(4-{[1-(pyridin-2-ylmethyl)-1H-indazol-5-yl]amino}[1]benzothieno [2,3-d]pyrimidin-7-yl)ethane-1,2-diol] |
| ≤ 0.5 µM | ≤ 5 µM | OCCc1ccc2c(c1)sc1ncnc(Nc3ccc4c(cnn4Cc4ccccn4)c3)c12 [Example 132, 2-(4-{[1-(pyridin-2-ylmethyl)-1H-indazol-5-yl]amino}[1]benzothieno [2,3-d]pyrimidin-7-yl)ethanol] |
| ≤ 0.5 µM | ≤ 50 µM | OCCc1ccc2c(c1)sc1ncnc(Nc3ccc4c(ccn4Cc4ccccc4)c3)c12 [Example 133, 2-{4-[(1-benzyl-1H-indol-5-yl)amino][1]benzothieno[2,3-d]pyrimidin-7-yl}ethanol] |
| ≤ 5 µM | ≤ 50 µM | CCOC(=O)Cc1ccc2c(c1)sc1ncnc(Nc3ccc(OCc4cscn4)c(Cl)c3)c12 [Example 134, ethyl (4-{[3-chloro-4-(1,3-thiazol-4-ylmethoxy)phenyl]amino}[1]benzothieno[2,3-d]pyrimidin-7-yl)acetate] |
| ≤ 5 µM | ≤ 50 µM | O=C(O)Cc1ccc2c(c1)sc1ncnc(Nc3ccc(OCc4cscn4)c(Cl)c3)c12 [Example 135, (4-{[3-chloro-4-(1,3-thiazol-4-ylmethoxy)phenyl]amino}[1]benzothieno[2,3-d]pyrimidin-7-yl) acetic acid] |
| ≤ 5 µM | ≤ 50 µM | O=C(Cc1ccc2c(c1)sc1ncnc(Nc3ccc(OCc4cscn4)c(Cl)c3)c12)N1CCOCC1 [Example 137, N-[3-chloro-4-(1,3-thiazol-4-ylmethoxy)phenyl]-7-(2-morpholin-4-yl-2-oxoethyl)[1]benzothieno [2,3-d]pyrimidin-4-amine] |
| ≤ 5 µM | ≤ 50 µM | O=C(Cc1ccc2c(c1)sc1ncnc(Nc3ccc(OCc4cscn4)c(Cl)c3)c12)NCCCN1CCOCC1 [Example 139, 2-(4-{[3-chloro-4-(1,3-thiazol-4-ylmethoxy)phenyl]amino}[1]benzothieno[2,3-d]pyrimidin-7-yl)-N-(3-morpholin-4-ylpropyl) acetamide] |

| SMILES | IC50 [1] | IC50 [2] |
| --- | --- | --- |
| O=C(Cc1ccc2c(c1)sc1ncnc(Nc3ccc4c(cnn4Cc4cccc(F)c4)c3)c12)NC1CN2CCC1CC2 (centres unmarked) [Example 123, N-1-azabicyclo[2.2.2]oct-3-yl-2-(4-{[1-(3-fluorobenzyl)-1H-indazol-5-yl]amino}[1]benzothieno [2,3-d]pyrimidin-7-yl)acetamide] | ≤ 0.5 µM | ≤ 5 µM |
| CN1CCN(C(=O)Cc2ccc3c(c2)sc2ncnc(Nc4ccc5c(cnn5Cc5cccc(F)c5)c4)c23)CC1 [Example 124, N-[1-(3-fluorobenzyl)-1H-indazol-5-yl]-7-[2-(4-methylpiperazin-1-yl)-2-oxoethyl][1]benzothieno[2,3-d] pyrimidin-4-amine] | ≤ 0.5 µM | ≤ 5 µM |
| CN(C)[C@H]1CCN(C(=O)Cc2ccc3c(c2)sc2ncnc(Nc4ccc5c(cnn5Cc5cccc(F)c5)c4)c23)C1 [Example 125, 7-{2-[3-(dimethylamino)pyrrolidin-1-yl]-2-oxoethyl}-N-[1-(3-fluorobenzyl)-1H-indazol-5-yl] [1]benzothieno[2,3-d]pyrimidin-4-amine] | ≤ 0.5 µM | ≤ 5 µM |
| CN(C)[C@@H]1CCN(C(=O)Cc2ccc3c(c2)sc2ncnc(Nc4ccc(OCc5cscn5)c(Cl)c4)c23)C1 [Example 136, N-[3-chloro-4-(1,3-thiazol-4-ylmethoxy)phenyl]-7-{2-[(3R)-3-(dimethylamino)pyrrolidin-1-yl]-2-oxoethyl}[1]benzothieno[2,3-d] pyrimidin-4-amine] | ≤ 0.5 µM | ≤ 5 µM |
| CN1CCN(C(=O)Cc2ccc3c(c2)sc2ncnc(Nc4ccc(OCc5cscn5)c(Cl)c4)c23)CC1 [Example 138, N-[3-chloro-4-(1,3-thiazol-4-ylmethoxy)phenyl]-7-[2-(4-methylpiperazin-1-yl)-2-oxoethyl][1]benzothieno[2,3-d] pyrimidin-4-amine] | ≤ 5 µM | ≤ 5 µM |
